# Results reported in BindingDB's records for doi:10.1021/acschembio.6b00962 (University of California Riverside, 2017).
# pIC50, pKd: −log10 of the molar value. Non-standard residues stand in square brackets, D forms with d. Residues, ends and D or L forms follow the SMILES beside them. ξ: configuration not given here. *: point of attachment. hCys = N[C@@H](CCS)C(=O)O; Dap = NC[C@H](N)C(=O)O; ξDap = NCC(N)C(=O)O; ClAc = O=C(CCl)*
# Experiments:
# Assay in all cases: DELFIA
# [1] = target: T1, Bcl-2-related protein A1 [1-149] (Human, UniProt Q16548)
# T1 construct: 1-149
# T1 sequence (Q16548 whole entry): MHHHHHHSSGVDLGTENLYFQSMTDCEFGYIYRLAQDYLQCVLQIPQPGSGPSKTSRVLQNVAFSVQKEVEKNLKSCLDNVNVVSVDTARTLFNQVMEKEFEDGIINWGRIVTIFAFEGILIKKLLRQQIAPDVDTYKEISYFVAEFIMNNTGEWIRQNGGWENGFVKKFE
# Experimental: (§1) After 1 h of incubation at RT to allow the immunoreaction to complete, a second washing step allowed removal of the unbound protein in complex with Eu antibodies if displaced by a test compound. […] Each well received a final DMSO concentration equal to 1%. Protein, peptide, and antibody solutions were prepared in DELFIA assay buffer (PerkinElmer).
# [2] = target: Induced myeloid leukemia cell differentiation protein Mcl-1 (Homo sapiens, UniProt Q07820)
# Experimental: as §1
# [3] = target: Apoptosis regulator Bcl-2 (Homo sapiens, UniProt P10415)
# Experimental: as §1
# [4] = target: Isoform Bcl-X(L) of Bcl-2-like protein 1 (Bcl-xL) (Homo sapiens, UniProt Q07817)
# Experimental: as §1
# Chain of Isoform Bcl-X(L) of Bcl-2-like protein 1 (Bcl-xL) (Q07817 whole entry G70A, canonical isoform): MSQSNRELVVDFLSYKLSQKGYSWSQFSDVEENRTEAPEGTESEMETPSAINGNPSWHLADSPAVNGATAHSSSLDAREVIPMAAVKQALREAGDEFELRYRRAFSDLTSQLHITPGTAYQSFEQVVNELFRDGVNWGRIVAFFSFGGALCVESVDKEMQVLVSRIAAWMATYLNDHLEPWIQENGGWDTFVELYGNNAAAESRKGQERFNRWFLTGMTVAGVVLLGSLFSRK
# Chain of Apoptosis regulator Bcl-2 (P10415 whole entry): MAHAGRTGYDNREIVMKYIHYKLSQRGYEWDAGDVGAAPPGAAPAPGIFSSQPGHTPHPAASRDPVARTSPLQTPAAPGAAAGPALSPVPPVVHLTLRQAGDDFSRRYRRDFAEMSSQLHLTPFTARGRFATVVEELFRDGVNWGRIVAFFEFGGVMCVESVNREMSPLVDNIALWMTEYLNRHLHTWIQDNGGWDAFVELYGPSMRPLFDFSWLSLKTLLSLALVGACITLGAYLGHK
# Chain of Induced myeloid leukemia cell differentiation protein Mcl-1 (Q07820 whole entry): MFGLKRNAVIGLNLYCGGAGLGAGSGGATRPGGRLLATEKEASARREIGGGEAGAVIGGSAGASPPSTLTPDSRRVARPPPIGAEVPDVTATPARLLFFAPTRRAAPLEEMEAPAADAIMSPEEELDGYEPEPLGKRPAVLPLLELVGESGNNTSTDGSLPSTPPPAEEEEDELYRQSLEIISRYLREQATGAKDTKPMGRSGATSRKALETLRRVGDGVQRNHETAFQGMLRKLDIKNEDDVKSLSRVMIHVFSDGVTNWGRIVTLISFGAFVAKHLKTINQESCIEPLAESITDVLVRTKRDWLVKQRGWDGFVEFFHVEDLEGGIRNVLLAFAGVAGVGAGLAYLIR
pIC50 [1],pIC50 [2],"pKd ([2]; pH 7.4, 25 °C)",pIC50 [3],pIC50 [4],Compound,pKd ([4]; pH 7.4),"pKd ([1]; pH 7.4, 25 °C)"
< 6.00,< 6.00,,,,CC1(C)CCC(CN2CCN(c3ccc(C(=O)NS(=O)(=O)c4ccc(NCC5CCOCC5)c([N+](=O)[O-])c4)c(Oc4cnc5[nH]ccc5c4)c3)CC2)=C(c2ccc(Cl)cc2)C1,,
,7.64,8.70,,,CC[C@H](C)[C@H](NC(=O)C(CNC(=O)CCl)NC(C)=O)C(=O)N[C@@H](C)C(=O)N[C@@H](CCC(N)=O)C(=O)N[C@@H](CCC(=O)O)C(=O)N[C@@H](CC(C)C)C(=O)N[C@@H](CCCNC(=N)N)C(=O)N[C@@H](CCCNC(=N)N)C(=O)N[C@H](C(=O)NCC(=O)N[C@@H](CC(=O)O)C(=O)N[C@@H](CCC(=O)O)C(=O)N[C@@H](Cc1ccccc1)C(=O)N[C@@H](CC(N)=O)C(=O)N[C@@H](C)C(=O)N[C@@H](Cc1ccc(O)cc1)C(=O)N[C@@H](Cc1ccc(O)cc1)C(=O)N[C@@H](C)C(=O)N[C@@H](CCCNC(=N)N)C(=O)N[C@@H](CCCNC(=N)N)C(N)=O)[C@@H](C)CC (some centres not stated) [130E7] (Ac-[ξDap](ClAc)IAQELRRIGDEFNAYYARR-NH2),,
7.08,6.58,,< 6.00,< 6.00,CC(=O)N[C@@H](CCS)C(=O)N[C@@H](C)C(=O)N[C@H](C(=O)N[C@@H](CCC(N)=O)C(=O)N[C@@H](CC(C)C)C(=O)N[C@@H](CCCNC(=N)N)C(=O)N[C@@H](CCCNC(=N)N)C(=O)N[C@@H](Cc1ccccc1)C(=O)NCC(=O)N[C@@H](CC(=O)O)C(=O)N[C@@H](CCCCN)C(=O)N[C@@H](CC(C)C)C(=O)N[C@@H](CC(N)=O)C(=O)N[C@@H](Cc1ccccc1)C(=O)N[C@@H](CCCNC(=N)N)C(=O)N[C@@H](CCC(N)=O)C(=O)N[C@@H](CCCCN)C(=O)N[C@@H](CC(C)C)C(=O)N[C@@H](CC(C)C)C(=O)N[C@@H](CC(N)=O)C(N)=O)[C@@H](C)O (Ac-[hCys]ATQLRRFGDKLNFRQKLLN-NH2),,
8.12,6.64,,< 6.00,< 6.00,Ac-CATQLRRFGDKLNFRQKLLN-NH2,,
7.82,< 6.00,,< 6.00,< 6.00,Ac-CATQLRRFGDKLN-NH2,,
7.86,7.49,,6.70,6.66,C=CCCC[C@](C)(NC(=O)[C@H](CC(=O)O)NC(=O)CNC(=O)[C@@H](NC(=O)[C@](C)(CCCC=C)NC(=O)[C@H](CCCNC(=N)N)NC(=O)[C@H](CC(C)C)NC(=O)[C@H](CCC(=O)O)NC(=O)[C@H](CCC(N)=O)NC(=O)[C@H](C)NC(=O)C(CNC(=O)CCl)NC(C)=O)[C@@H](C)CC)C(=O)N[C@@H](Cc1ccccc1)C(=O)N[C@@H](CC(N)=O)C(=O)N[C@@H](C)C(=O)N[C@@H](Cc1ccc(O)cc1)C(=O)N[C@@H](Cc1ccc(O)cc1)C(=O)N[C@@H](C)C(=O)N[C@@H](CCCNC(=N)N)C(=O)N[C@@H](CCCNC(=N)N)C(N)=O (some centres not stated) [130D11],,

Compound,pIC50 [1],pIC50 [2],"pKd ([2]; pH 7.4, 25 °C)",pIC50 [3],pIC50 [4],pKd ([4]; pH 7.4),"pKd ([1]; pH 7.4, 25 °C)"
CC(=O)NC(CNC(=O)CCl)C(=O)N[C@@H](C)C(=O)N[C@H](C(=O)N[C@@H](CCC(N)=O)C(=O)N[C@@H](CC(C)C)C(=O)N[C@@H](CCCNC(=N)N)C(=O)N[C@@H](CCCNC(=N)N)C(=O)N[C@@H](Cc1ccccc1)C(=O)NCC(=O)N[C@@H](CC(=O)O)C(=O)N[C@@H](CCCCN)C(=O)N[C@@H](CC(C)C)C(=O)N[C@@H](CC(N)=O)C(=O)N[C@@H](Cc1ccccc1)C(=O)N[C@@H](CCCNC(=N)N)C(=O)N[C@@H](CCC(N)=O)C(=O)N[C@@H](CCCCN)C(=O)N[C@@H](CC(C)C)C(=O)N[C@@H](CC(C)C)C(=O)N[C@@H](CC(N)=O)C(N)=O)[C@@H](C)O (some centres not stated) [λ_hNOXA] (Ac-[ξDap](ClAc)ATQLRRFGDKLNFRQKLLN-NH2),,6.63,,,,,
CC[C@H](C)[C@H](NC(=O)[C@H](CCCCN)NC(=O)[C@H](CCCNC(=N)N)NC(=O)[C@H](CC(C)C)NC(=O)[C@H](CCC(N)=O)NC(=O)[C@H](C)NC(=O)[C@H](C)NC(=O)[C@H](Cc1ccccc1)NC(=O)[C@H](CCC(=O)O)NC(=O)[C@@H]1CCCN1C(=O)[C@@H]1CCCN1C(=O)[C@H](CC(C)C)NC(=O)[C@H](CCC(=O)O)NC(=O)[C@H](C)NC(C)=O)C(=O)NCC(=O)N[C@@H](CC(=O)O)C(=O)N[C@@H](CCCCN)C(=O)N[C@H](C(=O)N[C@@H](Cc1ccc(O)cc1)C(=O)N[C@@H](CS)C(N)=O)C(C)C,< 6.00,,,< 6.00,< 6.00,,
CC[C@H](C)[C@H](NC(=O)[C@H](CCCNC(=N)N)NC(=O)[C@H](CCCNC(=N)N)NC(=O)[C@H](CC(C)C)NC(=O)[C@H](CCC(N)=O)NC(=O)[C@H](C)NC(=O)[C@H](CS)NC(=O)[C@H](CCC(=O)O)NC(=O)[C@H](CC(=O)O)NC(=O)[C@H](CCCCN)NC(=O)[C@H](CC(C)C)NC(=O)[C@H](CC(=O)O)NC(=O)[C@H](C)NC(=O)[C@@H]1CCCN1C(C)=O)C(=O)NCC(=O)N[C@@H](CC(=O)O)C(=O)N[C@@H](CCCCN)C(=O)N[C@H](C(=O)N[C@@H](CC(N)=O)C(=O)N[C@@H](CC(C)C)C(N)=O)C(C)C,6.37,,,< 6.00,< 6.00,,
CC[C@H](C)[C@H](NC(=O)[C@H](CCCNC(=N)N)NC(=O)[C@H](CCCNC(=N)N)NC(=O)[C@H](CC(C)C)NC(=O)[C@H](CCC(=O)O)NC(=O)[C@H](CCC(N)=O)NC(=O)[C@H](C)NC(=O)[C@@H](NC(=O)[C@H](CNC(=O)CCl)NC(C)=O)[C@@H](C)CC)C(=O)NCC(=O)N[C@@H](CC(=O)O)C(=O)N[C@@H](CCC(=O)O)C(=O)N[C@@H](Cc1ccccc1)C(=O)N[C@@H](CC(N)=O)C(=O)N[C@@H](C)C(=O)N[C@@H](Cc1ccc(O)cc1)C(=O)N[C@@H](Cc1ccc(O)cc1)C(=O)N[C@@H](C)C(=O)N[C@@H](CCCNC(=N)N)C(=O)N[C@@H](CCCNC(=N)N)C(N)=O [130E7] (Ac-[Dap](ClAc)IAQELRRIGDEFNAYYARR-NH2),8.06,,,7.57,7.33,7.59,8.59
